Assay results: patent US20240270750A1, “IMIDAZOLE-CONTAINING INHIBITORS OF ALK2 KINASE” (BioCryst Pharmaceuticals, Inc., priority 2021, published 2024)

molecular target: T1, ALK2 (Homo sapiens, UniProt Q04771); assay: LanthaScreen Eu Kinase Binding Assay, ALK2 inhibition; details: 1 micromolar concentration
T1 construct: purchased ThermoFisher Scientific (Life Technologies)
T1 sequence (Q04771 21-509): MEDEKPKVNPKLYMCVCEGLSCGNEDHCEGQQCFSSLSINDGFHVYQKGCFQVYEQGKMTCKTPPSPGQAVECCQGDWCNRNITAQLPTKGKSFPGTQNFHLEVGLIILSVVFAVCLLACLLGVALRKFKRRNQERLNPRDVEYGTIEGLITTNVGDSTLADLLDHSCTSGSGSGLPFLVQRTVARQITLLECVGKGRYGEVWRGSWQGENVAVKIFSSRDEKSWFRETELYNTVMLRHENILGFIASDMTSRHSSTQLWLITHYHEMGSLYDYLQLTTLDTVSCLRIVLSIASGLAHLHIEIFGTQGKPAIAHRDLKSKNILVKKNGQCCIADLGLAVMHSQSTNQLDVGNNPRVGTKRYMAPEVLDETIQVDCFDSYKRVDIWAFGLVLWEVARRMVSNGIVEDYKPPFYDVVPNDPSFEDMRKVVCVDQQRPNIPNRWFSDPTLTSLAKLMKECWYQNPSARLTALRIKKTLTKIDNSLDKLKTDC
Procedure: Biochemical assays to measure the inhibitory effects of the compounds were performed by ThermoFisher Scientific (Life Technologies). ALK2 inhibition was tested using LanthaScreen™ Eu Kinase Binding Assay screening protocol.

inhibition at 1 µM	Structure (SMILES)
> 50%	COc1cc(-n2cnc(Nc3nc(C(C)C)nc4c3cnn4C3CC3)c2)cc(OC)c1OC [Compound 14f, 1-cyclopropyl-6-isopropyl-N-(1-(3,4,5-trimethoxyphenyl)-1H-imidazol-4-yl)-1H-pyrazolo[3,4-d]pyrimidin-4-amine]
> 50%	CCCC(C)n1ncc2c(Nc3cn(-c4cc(OC)c(OC)c(OC)c4)cn3)nc(C(C)C)nc21 (centres unmarked) [Compound 15e, 6-isopropyl-1-(pentan-2-yl)-N-(1-(3,4,5-trimethoxyphenyl)-1H-imidazol-4-yl)-1H-pyrazolo[3,4-d]pyrimidin-4-amine]
> 50%	CCCCCn1ncc2c(Nc3cn(-c4cc(OC)c(OC)c(OC)c4)cn3)nc(C(C)C)nc21 [Compound 16c, 6-isopropyl-1-pentyl-N-(1-(3,4,5-trimethoxyphenyl)-1H-imidazol-4-yl)-1H-pyrazolo[3,4-d]pyrimidin-4-amine]
> 50%	COc1cc(-n2cnc(Nc3nc(C(C)C)nc4c3cnn4CC3CC3)c2)cc(OC)c1OC [Compound 17c, 1-(cyclopropylmethyl)-6-isopropyl-N-(1-(3,4,5-trimethoxyphenyl)-1H-imidazol-4-yl)-1H-pyrazolo[3,4-d]pyrimidin-4-amine]
> 50%	COc1cc(-n2cnc(Nc3nc(C(C)C)nc4c3cnn4C3CCCC3)c2)cc(OC)c1OC [Compound 18c, 1-cyclopentyl-6-isopropyl-N-(1-(3,4,5-trimethoxyphenyl)-1H-imidazol-4-yl)-1H-pyrazolo[3,4-d]pyrimidin-4-amine]
> 50%	COc1cc(-n2cnc(Nc3nc(C(C)C)nc4c3cnn4CC(C)C)c2)cc(OC)c1OC [Compound 20c, 1-isobutyl-6-isopropyl-N-(1-(3,4,5-trimethoxyphenyl)-1H-imidazol-4-yl)-1H-pyrazolo[3,4-d]pyrimidin-4-amine]
> 50%	COc1cc(-n2cnc(Nc3nc(C(C)C)nc4c3cnn4C3CCOC3)c2)cc(OC)c1OC (centres unmarked) [Compound 21c, 6-isopropyl-1-(tetrahydrofuran-3-yl)-N-(1-(3,4,5-trimethoxyphenyl)-1H-imidazol-4-yl)-1H-pyrazolo[3,4-d]pyrimidin-4-amine]
> 50%	CCn1ncc2c(Nc3cn(-c4cc(OC)c(OC)c(OC)c4)cn3)nc(C(C)C)nc21 [Compound 23c, 1-ethyl-6-isopropyl-N-(1-(3,4,5-trimethoxyphenyl)-1H-imidazol-4-yl)-1H-pyrazolo[3,4-d]pyrimidin-4-amine]
> 50%	COc1cc(-n2cnc(Nc3nc(C(C)C)nc4c3cnn4CC3CCCC3)c2)cc(OC)c1OC [Compound 24c, 1-(cyclopentylmethyl)-6-isopropyl-N-(1-(3,4,5-trimethoxyphenyl)-1H-imidazol-4-yl)-1H-pyrazolo[3,4-d]pyrimidin-4-amine]
> 50%	COc1cc(-n2cnc(Nc3nc(C(F)(F)F)nc4[nH]ncc34)c2)cc(OC)c1OC [Compound 25b, 6-(trifluoromethyl)-N-(1-(3,4,5-trimethoxyphenyl)-1H-imidazol-4-yl)-1H-pyrazolo[3,4-d]pyrimidin-4-amine]
> 50%	COc1cc(-n2cnc(Nc3nc(C(F)(F)F)nc4c3cnn4C(C)C)c2)cc(OC)c1OC [Compound 26a, 1-isopropyl-6-(trifluoromethyl)-N-(1-(3,4,5-trimethoxyphenyl)-1H-imidazol-4-yl)-1H-pyrazolo[3,4-d]pyrimidin-4-amine]
> 50%	C=CCC(C)c1nc(Nc2cn(-c3cc(OC)c(OC)c(OC)c3)cn2)c2cnn(C(C)C)c2n1 (centres unmarked) [Compound 27f, 1-isopropyl-6-(pent-4-en-2-yl)-N-(1-(3,4,5-trimethoxyphenyl)-1H-imidazol-4-yl)-1H-pyrazolo[3,4-d]pyrimidin-4-amine]
> 50%	COc1cc(-n2cnc(Nc3nc(C4CC(F)(F)C4)nc4c3cnn4C(C)C)c2)cc(OC)c1OC [Compound 28e, 6-(3,3-difluorocyclobutyl)-1-isopropyl-N-(1-(3,4,5-trimethoxyphenyl)-1H-imidazol-4-yl)-1H-pyrazolo[3,4-d]pyrimidin-4-amine]
> 50%	CCCC(C)c1nc(Nc2cn(-c3cc(OC)c(OC)c(OC)c3)cn2)c2cnn(C(C)C)c2n1 (centres unmarked) [Compound 29a, 1-isopropyl-6-(pentan-2-yl)-N-(1-(3,4,5-trimethoxyphenyl)-1H-imidazol-4-yl)-1H-pyrazolo[3,4-d]pyrimidin-4-amine]
> 50%	COCCc1nc(Nc2cn(-c3cc(OC)c(OC)c(OC)c3)cn2)c2cnn(C(C)C)c2n1 [Compound 30e, 1-isopropyl-6-(2-methoxyethyl)-N-(1-(3,4,5-trimethoxyphenyl)-1H-imidazol-4-yl)-1H-pyrazolo[3,4-d]pyrimidin-4-amine]
> 50%	COc1cc(-n2cnc(Nc3nc(C)nc4c3cnn4C(C)C)c2)cc(OC)c1OC [Compound 31b, 1-isopropyl-6-methyl-N-(1-(3,4,5-trimethoxyphenyl)-1H-imidazol-4-yl)-1H-pyrazolo[3,4-d]pyrimidin-4-amine]
> 50%	COc1cc(-n2cnc(Nc3nc(C(C)(C)C)nc4c3cnn4C(C)C)c2)cc(OC)c1OC [Compound 32d, 6-(tert-butyl)-1-isopropyl-N-(1-(3,4,5-trimethoxyphenyl)-1H-imidazol-4-yl)-1H-pyrazolo[3,4-d]pyrimidin-4-amine]
> 50%	CCC(C)c1nc(Nc2cn(-c3cc(OC)c(OC)c(OC)c3)cn2)c2cnn(C(C)C)c2n1 (centres unmarked) [Compound 33d, 6-(sec-butyl)-1-isopropyl-N-(1-(3,4,5-trimethoxyphenyl)-1H-imidazol-4-yl)-1H-pyrazolo[3,4-d]pyrimidin-4-amine]
> 50%	COc1cc(-n2cnc(Nc3nc(CC4CC4)nc4c3cnn4C(C)C)c2)cc(OC)c1OC [Compound 34d, 6-(cyclopropylmethyl)-1-isopropyl-N-(1-(3,4,5-trimethoxyphenyl)-1H-imidazol-4-yl)-1H-pyrazolo[3,4-d]pyrimidin-4-amine]
> 50%	COc1cc(-n2cnc(Nc3nc(C4CCC4)nc4c3cnn4C(C)C)c2)cc(OC)c1OC [Compound 35d, 6-cyclobutyl-1-isopropyl-N-(1-(3,4,5-trimethoxyphenyl)-1H-imidazol-4-yl)-1H-pyrazolo[3,4-d]pyrimidin-4-amine]
> 50%	COc1cc(-n2cnc(Nc3nc(CO)nc4c3cnn4C(C)C)c2)cc(OC)c1OC [Compound 36e, (1-isopropyl-4-((1-(3,4,5-trimethoxyphenyl)-1H-imidazol-4-yl)amino)-1H-pyrazolo[3,4-d]pyrimidin-6-yl)methanol]
> 50%	COc1cc(-n2cnc(Nc3nc(C4=CCN(C)CC4)nc4c3cnn4C(C)C)c2)cc(OC)c1OC [Compound 38b, 1-isopropyl-6-(1-methyl-1,2,3,6-tetrahydropyridin-4-yl)-N-(1-(3,4,5-trimethoxyphenyl)-1H-imidazol-4-yl)-1H-pyrazolo[3,4-d]pyrimidin-4-amine]
> 50%	COc1cc(-n2cnc(Nc3nc(C(C)C)nc4c3cnn4-c3ccccc3)c2)cc(OC)c1OC [Compound 39d, 6-isopropyl-1-phenyl-N-(1-(3,4,5-trimethoxyphenyl)-1H-imidazol-4-yl)-1H-pyrazolo[3,4-d]pyrimidin-4-amine]
